pIC50: −log10 of the molar value. ≈ marks a conversion by molar mass, not a printed value.
Columns and labels:
Aspergillus fumigatus [1] = experiment: Antifungal activity against Aspergillus fumigatus MTU 06002; format: functional
Candida albicans [2] = experiment: Antifungal activity against Candida albicans; format: functional
[3] = Inhibition of Aspergillus fumigatus AGM1
Cryptococcus neoformans [4] = experiment: Antifungal activity against Cryptococcus neoformans H99 after 48 hrs; format: functional; settings: var grubii H99 
Candida albicans [5] = experiment: Inhibition of Cch1 in Candida albicans isolate 10 assessed as potentiation of fluconazole-induced antifungal activity by measuring fractional inhibitory concentration index after 24 hrs by checkerboard assay
Candida albicans [6] = experiment: Inhibition of Cch1 in Candida albicans isolate 16 assessed as potentiation of fluconazole-induced antifungal activity by measuring fractional inhibitory concentration index after 24 hrs by checkerboard assay
Aspergillus fumigatus [7] = experiment: Antifungal activity against Aspergillus fumigatus IFM 40808 after 48 hrs by broth-microdilution method; format: functional; settings: IFM 40808, 48 h
[8] = Inhibition of Aspergillus fumigatus KU80UpyrG- NMT using [3H]-MCoA and CAP5.5 as substrate after 20 mins by SPA assay
Cryptococcus neoformans [9] = experiment: Antifungal activity against Cryptococcus neoformans; format: functional
Aspergillus fumigatus [10] = experiment: Antifungal activity against Aspergillus fumigatus; format: functional
Candida albicans [11] = experiment: Antifungal activity against Candida albicans infected in rat model of systemic candidiasis; format: functional, organism-based
Candida albicans [12] = experiment: Antifungal activity against Candida albicans ATCC 90028 after 48 hrs by broth-microdilution method; format: functional; settings: ATCC 90028, 48 h
Candida albicans [13] = experiment: Antifungal activity against Candida albicans ATCC 24433 after 48 hrs by broth-microdilution method; format: functional; settings: ATCC 24433, 48 h
Candida albicans [14] = experiment: Antifungal activity against Candida albicans ATCC 44859 after 48 hrs by broth-microdilution method; format: functional; settings: ATCC 44859, 48 h
Candida albicans [15] = experiment: Antifungal activity against Candida albicans IFM 40009 after 48 hrs by broth-microdilution method; format: functional; settings: IFM 40009, 48 h
Candida albicans [16] = experiment: Antifungal activity against Candida albicans IFM 5728 after 48 hrs by broth-microdilution method; format: functional; settings: IFM 5728, 48 h
Candida albicans [17] = experiment: Antifungal activity against Candida albicans TIMM 0171 after 48 hrs by broth-microdilution method; format: functional; settings: TIMM 0171, 48 h
Candida albicans [18] = experiment: Antifungal activity against Candida albicans TIMM 0239 after 48 hrs by broth-microdilution method; format: functional; settings: TIMM 0239, 48 h
Cryptococcus neoformans [19] = experiment: Antifungal activity against Cryptococcus neoformans TIMM 3173 after 48 hrs by broth-microdilution method; format: functional; settings: TIMM 3173, 48 h
[20] = target: T1, Glycylpeptide N-tetradecanoyltransferase (Candida albicans (strain SC5314 / ATCC MYA-2876) (Yeast), UniProt P30418); experiment: Inhibition of Candida albicans ATCC 90028 NMT using GLTISKLFRR-NH2 as substrate assessed as reduction in [3H]-myristoylated peptide reaction product formation preincubated with substrate for 10 mins followed by enzyme addition measured after 10 mins by HPLC analysis
T1 sequence (P30418 whole entry): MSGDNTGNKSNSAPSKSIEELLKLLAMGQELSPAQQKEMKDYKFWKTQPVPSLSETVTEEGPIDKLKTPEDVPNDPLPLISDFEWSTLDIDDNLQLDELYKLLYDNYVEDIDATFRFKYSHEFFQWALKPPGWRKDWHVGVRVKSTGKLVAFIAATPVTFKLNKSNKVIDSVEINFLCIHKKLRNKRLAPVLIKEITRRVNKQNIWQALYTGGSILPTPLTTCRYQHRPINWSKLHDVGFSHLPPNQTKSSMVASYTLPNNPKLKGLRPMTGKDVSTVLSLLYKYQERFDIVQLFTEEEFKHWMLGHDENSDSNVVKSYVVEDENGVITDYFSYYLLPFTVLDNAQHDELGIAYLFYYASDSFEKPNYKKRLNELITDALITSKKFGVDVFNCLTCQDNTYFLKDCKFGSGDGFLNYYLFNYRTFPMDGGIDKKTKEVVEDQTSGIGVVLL

Candida albicans [21] = experiment: Antifungal activity against Candida albicans ATCC 10231 after 24 hrs by CLSI protocol based method; format: functional; settings: ATCC 10231, 24 h
Cryptococcus neoformans [22] = experiment: Antifungal activity against Cryptococcus neoformans H99 serotype A after 72 hrs by microdilution method; format: functional, Cryptococcus neoformans var. grubii H99

**Q.** For C/N=[N+](\[O-])CC[C@H](N)C(=O)O, which IC80 (Aspergillus fumigatus [1]) is on record?
**A.** 0.72 µg/mL (≈ 4.47 µM)

**Q.** With N=C(N)NCCC[C@H](N)C(=O)N[C@@H](/C=C/CP(=O)(O)O)C(=O)O as the molecule, how does the MIC (Candida albicans [2]) read?
**A.** 0.35 µg/mL (≈ 0.996 µM)

**Q.** With NC(Cc1cc(O)c(O)cc1O)C(=O)O (stereo not drawn) as the molecule, how does the pIC50 [3] read?
**A.** 4.24

**Q.** For Cc1nn(-c2ccccc2)c2nc(C(F)(F)F)cc(O)c12, which MIC80 (Cryptococcus neoformans [4]) is on record?
**A.** 32 to 64 µg/mL (≈ 109 to 218 µM)

**Q.** Which fractional inhibitory concentration index (FICI) (Candida albicans [5]) does the source give for COC(=O)C1=C(C)NC(C)=C(C(=O)OC)C1c1ccccc1[N+](=O)[O-] here?
**A.** 0.017 to 0.035

**Q.** What about the fractional inhibitory concentration index (FICI) (Candida albicans [6]) of the same molecule?
**A.** 0.017 to 0.035

**Q.** Which results are given for Cc1c(NS(=O)(=O)c2c(Cl)cc(-c3ccnc(N4CCNCC4)c3)cc2Cl)c(CC(C)C)nn1C [ZELENIRSTAT]?
**A.** MIC (Aspergillus fumigatus [7]): 925 µM (≈ 497 µg/mL); pIC50 [8]: 7.92

**Q.** For CCOC(=O)C1=C(COCCN)NC(C)=C(C(=O)OC)C1c1ccccc1Cl (stereo not drawn), which fractional inhibitory concentration index (FICI) (Candida albicans [5]) is on record?
**A.** 0.017 to 0.035

**Q.** What about the fractional inhibitory concentration index (FICI) (Candida albicans [6]) of the same molecule?
**A.** 0.017 to 0.035

**Q.** Which MIC (Candida albicans [2]) does the source give for Cc1c(COc2ccc(F)c(F)c2F)oc2cccc(OCCCNCc3cccnc3)c12 here?
**A.** 0.05 µg/mL (≈ 0.11 µM)

**Q.** What about the MIC90 (Cryptococcus neoformans [9]) of the same molecule?
**A.** 3.13 µg/mL (≈ 6.86 µM)

**Q.** And the MIC (Aspergillus fumigatus [10])?
**A.** 25 µg/mL (≈ 54.8 µM)

**Q.** What about the EC50 (Candida albicans [11]) of the same molecule?
**A.** 7.1 mg/kg

**Q.** Which results are given for O=C(Nc1nc2ccc(NC(=O)[C@@H]3CCC[C@H](NCc4ccc5ccccc5c4)C3)cc2s1)C1CCCC1?
**A.** MIC (Candida albicans [12]): 0.78 µM (≈ 0.411 µg/mL); MIC (Candida albicans [13]): 0.78 µM (≈ 0.411 µg/mL); MIC (Candida albicans [14]): 0.78 µM (≈ 0.411 µg/mL); MIC (Candida albicans [15]): 0.78 µM (≈ 0.411 µg/mL); MIC (Candida albicans [16]): 0.78 µM (≈ 0.411 µg/mL); MIC (Candida albicans [17]): 0.78 µM (≈ 0.411 µg/mL); MIC (Candida albicans [18]): 0.78 µM (≈ 0.411 µg/mL); MIC (Cryptococcus neoformans [19]): > 25 µM; MIC (Aspergillus fumigatus [7]): > 25 µM; pIC50 [20]: 9.31

**Q.** With O=C(O)C[C@]1(C(=O)O)OC1C(=O)O (stereo partly drawn) as the molecule, how does the MIC (Candida albicans [21]) read?
**A.** > 512 µg/mL

**Q.** With C/C=C/C[C@@H](C)[C@@H](O)[C@H]1C(=O)N[C@@H](CC)C(=O)N(C)CC(=O)N(C)[C@@H](CC(C)C)C(=O)N[C@@H](C(C)C)C(=O)N(C)[C@@H](CC(C)C)C(=O)N[C@@H](C)C(=O)N[C@H](C)C(=O)N(C)[C@@H](CC(C)C)C(=O)N(C)[C@@H](CC(C)C)C(=O)N(C)[C@@H](C(C)C)C(=O)N1C [CYCLOSPORINE] as the molecule, how does the MIC (Cryptococcus neoformans [22]) read?
**A.** 0.39 µg/mL (≈ 0.324 µM)

**Q.** Which MIC (Cryptococcus neoformans [22]) does the source give for C=CC[C@@H]1/C=C(\C)C[C@H](C)C[C@H](OC)[C@H]2O[C@@](O)(C(=O)C(=O)N3CCCC[C@H]3C(=O)O[C@H](/C(C)=C/[C@@H]3CC[C@@H](O)[C@H](OC)C3)[C@H](C)[C@@H](O)CC1=O)[C@H](C)C[C@@H]2OC [TACROLIMUS ANHYDROUS] here?
**A.** 0.01 µg/mL (≈ 0.0124 µM)

**Q.** With Cc1nc(/N=N/c2ccc(C(=O)O)cc2)c(COP(=O)(O)O)c(C=O)c1O as the molecule, how does the pIC50 [3] read?
**A.** 5.15

Source: ChEMBL document CHEMBL4190370, “Emerging New Targets for the Treatment of Resistant Fungal Infections” (J Med Chem, 2018)
